In ChEMBL document CHEMBL5344422, “Syrosingopine Enhances 20S Proteasome Activity and Degradation of α-Synuclein” (J Nat Prod, 2024):
Active and inactive are the calls of the source. No cut-off for these calls is given here. Peptide text beside a SMILES is read from it. * marks the point of attachment. Cbz = O=C(OCc1ccccc1)*

Experiments:
[1] = target: T1, 20S proteasome (Homo sapiens) (UniProt P49721+P20618+P28074+P28062+P28065+P28072+P25786+P25787+P25788+P25789+P28066+P60900+O14818+Q8TAA3+P40306+A5LHX3+P49720+P28070+Q99436); assay: Activation of 20S proteasome in human HeLa cells assessed as gate opening by measuring increase in membrane-permeable fluorescent probe signal pretreated for 20 hrs followed by treated with Me4BodipyFL-Ahx3Lue3VS probe for 2 hrs by flow cytometry relative to DMSO; type: cell-based; conditions: filed as activator, time 22.0 hrs
[2] = target: T1, 20S proteasome (Homo sapiens); assay: Activation of human 20S proteasome chymotrypsin-like hydrolysis activity assessed as measuring fold increase in protein activity using SucLLVY-MCA as a fluorogenic substrate at 20 uM incubated for 1 hrs by fluorescence based assay relative to DMSO; type: protein-complex assay
[3] = target: T1, 20S proteasome (Homo sapiens); assay: Activation of human 20S proteasome chymotrypsin-like hydrolysis activity assessed as measuring fold increase in protein activity using SucLLVY-MCA as a fluorogenic substrate at 10 uM incubated for 20 mins by fluorescence based assay relative to DMSO; type: protein-complex assay; conditions: filed as activator
[4] = target: T1, 20S proteasome (Homo sapiens); assay: Activation of human 20S proteasome mediated trypsin-like proteolytic activity assessed as maximal fold increase in protein activity using […] as a fluorogenic substrate incubated for 1 hr by fluorescence based assay; type: protein-complex assay; conditions: filed as activator
[5] = target: T1, 20S proteasome (Homo sapiens); assay: Activation of human 20S proteasome chymotrypsin-like hydrolysis activity assessed as concentration to doubling the protein activity using SucLLVY-MCA as a fluorogenic substrate measured after 1 hr by fluorescence based assay; type: protein-complex assay; conditions: filed as activator
[6] = target: T1, 20S proteasome (Homo sapiens); assay: Activation of human 20S proteasome assessed as alpha-synuclein degradation in presence of MG132 incubated for 20 mins by Western blot analysis; type: protein-complex assay
[7] = target: T1, 20S proteasome (Homo sapiens); assay: Activation of human 20S proteasome trypsin-like hydrolysis activity assessed as concentration to doubling the protein activity using […] as a fluorogenic substrate measured after 1 hr by fluorescence based assay; type: protein-complex assay; conditions: filed as activator
[8] = target: T1, 20S proteasome (Homo sapiens); assay: Activation of human 20S proteasome assessed as alpha-synuclein degradation incubated for 20 mins by Western blot analysis; type: protein-complex assay; conditions: filed as activator
[9] = target: T1, 20S proteasome (Homo sapiens); assay: Activation of human 20S proteasome caspase-like hydrolysis activity assessed as concentration to doubling the protein activity using […] as a fluorogenic substrate measured after 1 hr by fluorescence based assay; type: protein-complex assay; conditions: filed as activator
[10] = target: T1, 20S proteasome (Homo sapiens); assay: Activation of human 20S proteasome mediated caspase-like proteolytic activity assessed as maximal fold increase in protein activity using […] as a fluorogenic substrate incubated for 1 hr by fluorescence based assay; type: protein-complex assay; conditions: filed as activator
[11] = target: 26S proteasome (Homo sapiens) (UniProt Q99460+P49721+P20618+P28074+P28062+P28065+P28072+O00487+P25786+P25787+P25788+P25789+P28066+P60900+O14818+Q8TAA3+P40306+A5LHX3+P49720+P28070+Q99436+Q16186+P35998+P62191+P43686+P62333+P17980+P62195+Q13200+O43242+O00232+O00231+Q15008+P51665+Q9UNM6+P55036+P48556+P60896); assay: Activation of human 26S proteasome mediated proteolytic hydrolysis activity using SucLLVY-AMC as a flurogenic substrate measured every minute for 1 hrs by fluorescence based assay; type: protein-complex assay
[12] = target: T1, 20S proteasome (Homo sapiens); assay: Activation of human 20S proteasome mediated chymotrypsin-like proteolytic activity assessed as maximal fold increase in protein activity using SucLLVY-MCA as a fluorogenic substrate incubated for 1 hr by fluorescence based assay; type: protein-complex assay; conditions: filed as activator
[13] = target: T1, 20S proteasome (Homo sapiens); assay: Activation of human 20S proteasome chymotrypsin-like hydrolysis activity assessed as measuring fold increase in protein activity using SucLLVY-MCA as a fluorogenic substrate at 20 uM incubated for 20 mins by fluorescence based assay relative to DMSO; type: protein-complex assay; conditions: filed as activator

| Molecule | fold change (FC) ([2]; filed as activator) | fold change (FC) [3] | fold change (FC) [2] | also measured |
| --- | --- | --- | --- | --- |
| CC(C)C[C@@H](C=O)NC(=O)[C@H](CC(C)C)NC(=O)[C@H](CC(C)C)NC(=O)OCc1ccccc1 (Cbz-Leu-Leu-Leu-aldehyde) | – | – | – | Activity [1]: 0.11 |
| Cc1cc2nc3c(=O)[nH]c(=O)nc-3n(C[C@H](O)[C@H](O)[C@H](O)CO)c2cc1C | 4.5 | – | – | – |
| CC(C)=CCC/C(C)=C/CC/C(C)=C/CC/C(C)=C/CC1=C(C)C(=O)c2ccccc2C1=O | 4.5 | – | – | – |
| RAUWOLFIA SERPENTINA | – | 1.05 | < 3 | – |
| COc1cc(/C=C/C(=O)CC(=O)/C=C/c2ccc(O)c(OC)c2)ccc1O | 5.4 | – | – | – |
| CCOC(=O)Oc1c(OC)cc(C(=O)O[C@@H]2C[C@@H]3CN4CCc5c([nH]c6cc(OC)ccc56)[C@H]4C[C@@H]3[C@H](C(=O)OC)[C@H]2OC)cc1OC | 13 | 12.5 | – | fold change (FC) [4]: 8; CD [5]: 1 µM; Activity ([6]; filed as activator): Active; CD [7]: 0.96 µM; Activity [8]: Active; CD [9]: 0.38 µM; fold change (FC) [10]: 9.4; Activity [11]: inactive; fold change (FC) [12]: 9.8; Activity [1]: 2.84 |
| CC(C)[C@H]1C(=O)N2CCC[C@H]2[C@]2(O)O[C@](NC(=O)[C@@H]3C[C@@H]4c5cccc6[nH]cc(c56)C[C@H]4N(C)C3)(C(C)C)C(=O)N12 | 4.3 | – | – | – |
| COc1ccc2c3c([nH]c2c1)[C@H]1C[C@H]2[C@H](C[C@@H](O)[C@H](OC)[C@H]2C(=O)O)CN1CC3 | – | 2.73 | < 3 | – |
| COC(=O)[C@H]1[C@H]2C[C@H]3c4[nH]c5ccccc5c4CCN3C[C@H]2CC[C@@H]1O | – | 1.32 | < 3 | – |
| COC(=O)[C@@H]1[C@H]2C[C@H]3c4[nH]c5ccccc5c4CCN3C[C@@H]2CC[C@@H]1O | – | 0.82 | < 3 | – |
| Cc1cc2c(C(C)C)c(O)c(O)c(C=O)c2c(O)c1-c1c(C)cc2c(C(C)C)c(O)c(O)c(C=O)c2c1O | 4 | – | – | – |
| C[C@H]1[C@H](C)CC[C@]2(C(=O)O)CC[C@]3(C)C(=CC[C@@H]4[C@@]5(C)CC[C@H](O)C(C)(C)[C@@H]5CC[C@]43C)[C@H]12 | 6.5 | – | – | – |
| CN(C)CCCN1c2ccccc2Sc2ccc(Cl)cc21 | – | – | – | fold change (FC) [13]: 4.09; Activity [1]: 1.29 |
| COC(=O)[C@H]1/C(=N/O)CC[C@H]2CN3CCc4c([nH]c5ccccc45)[C@@H]3C[C@@H]21 | – | 1.49 | < 3 | – |
| COC(=O)[C@H]1[C@H]2C[C@@H]3c4[nH]c5cc(OC)ccc5c4CCN3C[C@H]2C[C@@H](OC(=O)c2cc(OC)c(OC)c(OC)c2)[C@@H]1OC | 7.9 | 7.91 | – | fold change (FC) [4]: 7; CD [5]: 1.6 µM; Activity [6]: inactive; CD [7]: 1.3 µM; Activity [8]: Active; CD [9]: 0.53 µM; fold change (FC) [10]: 7; Activity [11]: inactive; fold change (FC) [12]: 4.8 |
| CC(C)[C@@]1(NC(=O)[C@@H]2C[C@@H]3c4cccc5[nH]cc(c45)C[C@H]3N(C)C2)O[C@@]2(O)[C@@H]3CCCN3C(=O)[C@H](Cc3ccccc3)N2C1=O | 8 | – | – | – |
| CN1C[C@H](C(=O)N[C@]2(C)O[C@@]3(O)[C@@H]4CCCN4C(=O)[C@H](Cc4ccccc4)N3C2=O)C=C2c3cccc4[nH]cc(c34)C[C@H]21 | 7.2 | – | – | – |
| CC(C)C[C@H]1C(=O)N2CCC[C@H]2[C@]2(O)O[C@](NC(=O)[C@@H]3C=C4c5cccc6[nH]cc(c56)C[C@H]4N(C)C3)(C(C)C)C(=O)N12 | 8.9 | – | – | – |
| COC(=O)[C@H]1[C@H]2C[C@H]3c4[nH]c5ccccc5c4CCN3C[C@@H]2CC[C@@H]1O | – | 0.99 | < 3 | – |
| CC(C)C[C@H]1C(=O)N2CCC[C@H]2[C@]2(O)O[C@](NC(=O)[C@@H]3C=C4c5cccc6[nH]c(Br)c(c56)C[C@H]4N(C)C3)(C(C)C)C(=O)N12 | 6.7 | – | – | – |
| O=C(O)[C@@H]1[C@H]2C[C@H]3c4[nH]c5ccccc5c4CCN3C[C@@H]2CC[C@@H]1O | – | 2.17 | < 3 | – |
